According to patent publication US20250064794A1, “A THERAPEUTIC COMBINATION COMPRISING A TIGIT ANTAGONIST, A PD-1 ANTAGONIST, AND LENVATINIB” (EISAI R&D MANAGEMENT CO., LTD., priority 2021, published 2025):

Tests used:
CT26 tumor = test: Anti-tumor efficacy in CT26 tumor model; assay type: in vivo, female BALB/c mice
Text: The present Example describes anti-tumor effects of a combination of a TIGIT antagonist, a PD-1 antagonist and lenvatinib using a CT26 tumor model.
Prior to treatment initiation, female BALB/c mice aged 8 weeks weighing between 18 to 21 grams were anesthetized and subcutaneously injected into the rear flank with 0.3×10^6 CT26 log-phase sub-confluent cells. When the mean tumor volume of inoculated animals with CT26 reached approximately 146 mm^3 (13 days later) mice were pair-matched into 8 treatment groups consisting of 10 mice per group.
Antibody Reagents in this Example Include: • Anti-PD-1 mIgG1 antibody, which is a murinized version of a rat anti-mouse PDT Ab with a mouse IgG1 Fe; • Anti-TIGIT mIgG2a antibody having a mouse Fe region of mIgG2a subtype that is the murine counterpart isotype to human isotype IgG1; • Isotype mIgG1 antibody, which is a mouse IgG1 isotype-matched control monoclonal antibody specific for adenoviral hexon 25; and • Isotype mIgG2a antibody, which is a mouse IgG2a isotype-matched control monoclonal antibody specific for adenoviral hexon 25.
• 1) 0.5% methylcellulose (Vehicle)+isotype mIgG1 antibody+isotype mIgG2a antibody; • 2) Vehicle+anti-PD-1 mIgG1 antibody+isotype mIgG1 antibody; • 3) Vehicle+isotype mIgG1 antibody+anti-TIGIT mIgG2a antibody; • 4) Lenvatinib+isotype mIgG1 antibody+isotype mIgG2a antibody; • 5) Vehicle+anti-PD-1 mIgG1 antibody+anti-TIGIT mIgG2a antibody; • 6) Lenvatinib+anti-PD-1 mIgG1 antibody+isotype mIgG2a antibody; • 7) Lenvatinib+isotype mIgG1 antibody+anti-TIGIT mIgG2a antibody; and • 8) Lenvatinib+anti-PD-1 mIgG1 antibody+anti-TIGIT mIgG2a antibody.
Vehicle and lenvatinib were orally gavage-dosed once daily (QD) at 10 mg/kg body weight. Isotype control, a mouse monoclonal antibody specific for adenoviral hexon on IgG1 or IgG2a backbones, as well as anti-PD-1 and anti-TIGIT antibodies were dosed intraperitoneally every 5 days at 10 mg/kg body weight. Start of treatments was considered Day 0 and dosing based on described schedules continued as described until Day 40. […]

[1] = in vivo; cited from earlier work
[2] = Day 40, 10 mice per group, lenvatinib 10 mg/kg QD, antibodies 10 mg/kg IP every 5 days

COc1cc2nccc(Oc3ccc(NC(=O)NC4CC4)c(Cl)c3)c2cc1C(N)=O [Lenvatinib monotherapy, 4-[3-chloro-4-(cyclopropylaminocarbonyl)aminophenoxy]-7-methoxy-6-quinolinecarboxamide]
TGI at Day 12 (CT26 tumor; CT26 s.c. tumors, treatment started at 146 mm^3, lenvatinib 10 mg/kg orally QD, antibodies 10 mg/kg intraperitoneally every 5 days, vs Vehicle group at Day 12): 36% (p = 0.014)
End of study CRs (complete tumor regressions) (CT26 tumor; [2]): 0 CRs, 0 PRs
End of study PRs (partial tumor regressions) (CT26 tumor; [2]): 0 CRs, 0 PRs
half-life [1]: 28 h
